Experiments:
Assay type in all cases: in vivo
[1] = test system: ABUTH: Abutilon theophrasti; test: Post-emergence herbicidal efficacy at 1280 g/ha, ABUTH; details: rated visually after about 3 weeks vs untreated controls, 100% = plants have died, 0% = like control plants
Method: (§1) Seeds of mono- and dicotyledonous weed plants were placed in plastic pots in sandy loam soil (doubly sown with in each case one species of mono- or dicotyledonous weed plants per pot), covered with soil and cultivated in a greenhouse under controlled growth conditions. 2 to 3 weeks after sowing, the test plants were treated at the one-leaf stage. The compounds of the invention, formulated in the form of wettable powders (WP) or as emulsion concentrates (EC), were applied to the green parts of the plants as aqueous suspension or emulsion with addition of 0.5% additive at a water application rate equivalent to 600 litres per hectare. After the test plants had been kept in the greenhouse under optimum growth conditions for about 3 weeks, the activity of the preparations was rated visually in comparison to untreated controls. For example, 100% activity=the plants have died, 0% activity=like control plants. Tables A1 to A12 below show the effects of selected compounds of the general formula (I) according to Table 1 on various harmful plants and at an application rate corresponding to 1280 g/ha, which were obtained by the trial procedure specified above.

[2] = test system: AMARE: Amaranthus retroflexus; test: Post-emergence herbicidal efficacy at 1280 g/ha, AMARE; details: rated visually after about 3 weeks vs untreated controls, 100% = plants have died, 0% = like control plants
Method: as §1

[3] = test system: DIGSA: Digitaria sanguinalis; test: Post-emergence herbicidal efficacy at 1280 g/ha, DIGSA; details: rated visually after about 3 weeks vs untreated controls, 100% = plants have died, 0% = like control plants
Method: as §1

[4] = test system: KCHSC: Kochia scoparia; test: Post-emergence herbicidal efficacy at 1280 g/ha, KCHSC; details: visual rating about 3 weeks after treatment vs untreated controls
Method: as §1

[5] = test system: POAAN: Poa annua; test: Post-emergence herbicidal efficacy at 1280 g/ha, POAAN; details: visual rating about 3 weeks after treatment vs untreated controls
Method: as §1

[6] = test system: STEME: Stellaria media; test: Post-emergence herbicidal efficacy at 1280 g/ha, STEME; details: visual rating about 3 weeks after treatment vs untreated controls
Method: as §1

[7] = test system: VERPE: Veronica persica; test: Post-emergence herbicidal efficacy at 1280 g/ha, VERPE; details: visual rating about 3 weeks after treatment vs untreated controls
Method: as §1

[8] = test system: AMARE: Amaranthus retroflexus; test: Pre-emergence herbicide efficacy at 1280 g/ha, AMARE; details: visual scoring after about 3 weeks vs untreated controls
From the text: (§2) Seeds of mono- and dicotyledonous weed plants were placed in plastic pots in sandy loam soil (doubly sown with one species each of mono- or dicotyledonous weed plants per pot) and covered with soil. The compounds of the invention, formulated in the form of wettable powders (WP) or as emulsion concentrates (EC), were then applied to the surface of the covering soil as aqueous suspension or emulsion with addition of 0.5% additive at a water application rate of 600 litres per hectare (converted). After the treatment, the pots were placed in a greenhouse and kept under good growth conditions for the test plants. After about 3 weeks, the efficacy of the preparations was scored visually in comparison with untreated controls as percentages. For example, 100% activity=the plants have died, 0% activity=like control plants. Tables C1 to C12 below show the effects of selected compounds of the general formula (I) according to Table 1 on various harmful plants and at an application rate corresponding to 1280 g/ha, which were obtained by the trial procedure specified above.

[9] = test system: DIGSA: Digitaria sanguinalis; test: Pre-emergence herbicide efficacy at 1280 g/ha, DIGSA; details: visual scoring after about 3 weeks vs untreated controls
From the text: as §2

[10] = test system: ECHCG: Echinochloa crus-galli; test: Pre-emergence herbicide efficacy at 1280 g/ha, ECHCG; details: visual scoring after about 3 weeks vs untreated controls
From the text: as §2

[11] = test system: KCHSC: Kochia scoparia; test: Pre-emergence herbicide efficacy at 1280 g/ha, KCHSC; details: visual scoring after about 3 weeks vs untreated controls
From the text: as §2

[12] = test system: POAAN: Poa annua; test: Pre-emergence herbicide efficacy at 1280 g/ha, POAAN; details: visual scoring after about 3 weeks vs untreated controls
From the text: as §2

[13] = test system: SETVI: Setaria viridis; test: Pre-emergence herbicide efficacy at 1280 g/ha, SETVI; details: visual scoring vs untreated controls
From the text: as §2

[14] = test system: AMARE: Amaranthus retroflexus; test: Post-emergence herbicidal efficacy at 80 g/ha, AMARE; details: visual rating about 3 weeks after treatment vs untreated controls
Method: Seeds of monocotyledonous and dicotyledonous weeds and crop plants were placed in sandy loam in plastic or organic planting pots, covered with soil and cultivated in a greenhouse under controlled growth conditions. 2 to 3 weeks after sowing, the test plants were treated at the one-leaf stage. The compounds of the invention, formulated in the form of wettable powders (WP) or as emulsion concentrates (EC), were then sprayed onto the green parts of the plants as aqueous suspension or emulsion with addition of 0.5% additive at a water application rate of 600 l/ha (converted). After the test plants had been kept in the greenhouse under optimum growth conditions for about 3 weeks, the activity of the preparations was rated visually in comparison to untreated controls. For example, 100% activity=the plants have died, 0% activity=like control plants. Tables B1 to B10 below show the effects of selected compounds of the general formula (I) according to Table 1 on various harmful plants and an application rate corresponding to 80 g/ha, which were obtained by the experimental procedure mentioned above.

[15] = test system: AMARE: Amaranthus retroflexus; test: Pre-emergence herbicide efficacy at 80 g/ha, AMARE; details: scored visually after about 3 weeks
From the text: Seeds of monocotyledonous and dicotyledonous weed plants and crop plants were placed in plastic or organic planting pots and covered with soil. The compounds of the invention, formulated in the form of wettable powders (WP) or as emulsion concentrates (EC), were then applied to the surface of the covering soil as aqueous suspension or emulsion with addition of 0.5% additive at a water application rate equivalent to 600 l/ha. After the treatment, the pots were placed in a greenhouse and kept under good growth conditions for the test plants. After about 3 weeks, the efficacy of the preparations was scored visually in comparison with untreated controls as percentages. For example, 100% activity=the plants have died, 0% activity=like control plants. Tables D1 to D12 below show the effects of selected compounds of the general formula (I) according to Table 1 on various harmful plants and an application rate corresponding to 80 g/ha, which were obtained by the experimental procedure mentioned above.

[16] = test system: ECHCG: Echinochloa crus-galli; test: Post-emergence herbicidal efficacy at 1280 g/ha, ECHCG; details: rated visually after about 3 weeks vs untreated controls, 100% = plants have died, 0% = like control plants
Method: as §1

[17] = test system: SETVI: Setaria viridis; test: Post-emergence herbicidal efficacy at 1280 g/ha, SETVI; details: visual rating about 3 weeks after treatment vs untreated controls
Method: as §1

[18] = test system: ABUTH: Abutilon theophrasti; test: Pre-emergence herbicide efficacy at 1280 g/ha, ABUTH; details: visual scoring after about 3 weeks vs untreated controls
From the text: as §2

[19] = test system: STEME: Stellaria media; test: Pre-emergence herbicide efficacy at 1280 g/ha, STEME; details: visual scoring vs untreated controls
From the text: as §2

| Compound | Post-emergence efficacy at 1280 g/ha against ABUTH in % [1] | Post-emergence efficacy at 1280 g/ha against AMARE in % [2] | Post-emergence efficacy at 1280 g/ha against DIGSA in % [3] | Post-emergence efficacy against KCHSC [4] | Post-emergence efficacy against POAAN [5] | Post-emergence efficacy against STEME [6] | Post-emergence efficacy against VERPE [7] | Pre-emergence efficacy against AMARE [8] | Pre-emergence efficacy against DIGSA [9] | Pre-emergence efficacy against ECHCG [10] | Pre-emergence efficacy against KCHSC [11] | Pre-emergence efficacy against POAAN [12] | Pre-emergence efficacy against SETVI in % [13] | Post-emergence efficacy against AMARE [14] | Pre-emergence efficacy against AMARE in % [15] | Post-emergence efficacy at 1280 g/ha against ECHCG in % [16] | Post-emergence efficacy against SETVI [17] | Pre-emergence efficacy against ABUTH [18] | Pre-emergence efficacy against STEME in % [19] |
| --- | --- | --- | --- | --- | --- | --- | --- | --- | --- | --- | --- | --- | --- | --- | --- | --- | --- | --- | --- |
| FC(F)(F)CCCc1ccccc1Cc1ncc(Cl)cn1 [Example 1-1] | 90% | 100% | 90% | 90% | 90% | 100% | 100% | 100% | 100% | 90% | 90% | 90% | 90% | – | – | – | – | – | – |
| O=S(=O)(CCC(F)(F)F)Oc1c(Cl)cccc1Cc1ncc(F)cn1 [Example 1-21] | – | – | – | – | – | – | – | – | – | – | – | – | – | 90% | 90% | – | – | – | – |
| Cc1cccc(Cc2ncc(Cl)cn2)c1Oc1ccc(F)cc1 [Example 1-31] | 100% | 90% | – | – | 90% | 90% | 90% | 90% | 100% | 100% | – | 100% | 100% | – | – | 100% | 90% | – | – |
| N#CC(c1ncc(F)cn1)c1ccccc1Cc1ccc(F)cc1 (stereo not shown) [Example 1-81] | 90% | 90% | – | – | – | – | 90% | – | – | – | – | 100% | – | – | – | 90% | – | – | – |
| Fc1ccc(Oc2ccccc2Cc2ncc(Br)cn2)cc1 [Example 1-87] | 100% | 100% | – | 100% | 100% | 90% | 100% | 100% | 100% | 90% | – | – | 100% | – | – | 90% | 90% | – | – |
| Fc1ccc(Cc2ccccc2Cc2ccc(Cl)cn2)cc1 [Example 1-96] | 100% | 100% | – | 90% | 90% | 90% | 100% | 100% | 100% | 90% | – | – | 90% | – | – | 90% | – | 100% | – |
| Fc1cc(Cl)cnc1Oc1ccccc1Cc1ccc(Cl)cn1 [Example 1-101] | 90% | 100% | – | – | 100% | 90% | 100% | 100% | 100% | 100% | – | 100% | 100% | – | – | 90% | – | 90% | 100% |
| Fc1ccc(Sc2ccccc2Cc2ncc(Cl)cc2F)cc1 [Example 1-106] | 90% | 100% | – | 90% | 100% | 100% | 100% | 90% | – | – | – | – | – | – | – | 90% | – | – | – |
| Fc1cccc(Cc2ncc(Cl)cn2)c1Oc1ncc(Cl)cn1 [Example 1-151] | – | – | – | – | – | – | – | – | – | – | – | – | – | 80% | 80% | – | – | – | – |
| Fc1cnc(Cc2cccc(F)c2Oc2ncc(F)cn2)nc1 [Example 1-153] | – | – | – | – | – | – | – | – | – | – | – | – | – | 90% | 100% | – | – | – | – |
| Cc1nc(-c2ccccc2Cc2ncc(Cl)cn2)no1 [Example 1-159] | – | – | – | – | – | – | – | – | – | – | – | – | – | 80% | 90% | – | – | – | – |
| FC(F)c1nc(-c2ccccc2Cc2ncc(Cl)cn2)no1 [Example 1-160] | – | – | – | – | – | – | – | – | – | – | – | – | – | 100% | 100% | – | – | – | – |

From patent publication US20250221410A1, “SUBSTITUTED 2-C-AZINES AND SALTS THEREOF, AND USE THEREOF AS HERBICIDAL ACTIVE SUBSTANCES” (BAYER AKTIENGESELLSCHAFT, priority 2022, published 2025)
